Patent US20130064815A1, “INDUCING APOPTOSIS IN QUIESCENT CELLS” (THE TRUSTEES OF PRINCETON UNIVERSITY, priority 2011, published 2013)
Where a SMILES comes first, the peptide text is derived from it. The star is where a group is joined. Cbz = O=C(OCc1ccccc1)*

Experiments:
MnSOD = MnSOD expression after MG132 (microarray, Western blot); assay type: cell-based, human
From the text: (§1) Other researchers have reported that there is a correlation between proliferative status and sensitivity to oxidative stress in human fibroblasts (Naderi et al., 2003, “Oxidative stress-induced apoptosis in dividing fibroblasts involves activation of p38 MAP kinase and over-expression of Bax: resistance of quiescent cells to oxidative stress, Apoptosis 8, 91-100, which is incorporated herein by reference as if fully set forth). […] A Western blot analysis was used to monitor the levels of the ROS detoxifying enzymes MnSOD and catalase, an enzyme that converts hydrogen peroxide to water and oxygen. The protein concentrations of MnSOD and catalase were higher in quiescent fibroblasts than in proliferating cells (FIG. 26B), consistent with a previous report (Sarsour et al., 2008, “Manganese superoxide dismutase activity regulates transitions between quiescent and proliferative growth, Aging cell 7, 405-417, which is incorporated herein by reference as if fully set forth). […] It was hypothesized that the higher levels of ROS-detoxifying enzymes in quiescent fibroblasts contributes to the protection of quiescent fibroblasts from proteasome inhibition-induced apoptosis. Intracellular superoxide levels were monitored using dihydroethidium (DHE), an indicator of superoxide anions.

[1] = system: primary human fibroblasts; experiment: caspase 3/7 activity apoptosis assay (ApoTox-Glo) in proliferating and quiescent fibroblasts; assay type: cell-based; settings: MG132 0 to 10 μM; proliferating and serum-starved cells
Description: Referring to FIG. 2A, primary human fibroblasts were tested either in a proliferating state or after being induced into quiescence. Quiescence may be induced by either contact inhibition or serum starvation. Cells were treated with DHEA for four days, with bafilomycin added on the fourth day. Apoptosis was assessed based on the activity of caspase 3/7 for a fluorogenic substrate.
PPP inhibition and apoptosis analysis: Apoptosis was measured based on the levels of caspase 3/7 released into the media using the ApoTox-Glo Triplex Assay according to the manufacturer's instructions (Promega Corp., Madison, Wis.). Cells were plated in triplicate at 10,000 cells per well in white-walled, clear-bottom 96-well plates (Costar, Corning Life Sciences, Lowell, Mass.). For contact inhibition, cells were plated 7 days prior to the start of treatment, for serum starvation cells were plated 4 days prior to treatment and switched to 0.1% serum media for the remaining 3 days, while proliferating cells were plated the day prior to the start of treatment. […] Cells in serum starvation conditions were incubated in 0.1% serum during treatment as well. The apoptosis reagent was added at 100 μl per well and incubated for 1 h prior to reading. Luminescence was read from the top using a Synergy-2 plate reader (Biotek, Winooski, Vt.). Luminescence data were normalized to the vehicle only condition.
Apoptosis induction was assessed by monitoring caspase 3/7 activity using a luminescent caspase substrate. This assay is optimized for high-throughput screening in 96-well plates and allows multiple concentrations and combination of drugs to be tested in triplicate at different time points. […] Therefore, this assay was used to compare proliferating and serum-starved cells only.

superoxide = experiment: intracellular superoxide levels with dihydroethidium (DHE); assay type: cell-based, human; settings: proteasome inhibition
From the text: as §1

LC3-II = LC3-II immunoblot (autophagy / autophagic flux); assay type: cell-based, human; settings: MG132 treatment; proliferating, contact-inhibited and serum-starved states
Description: The levels of autophagy components—Atg5/Atg12, Atg7, Atg3, and LC3-I and LC3-II—were monitored in proliferating and contact-inhibited fibroblasts using immunoblotting (FIG. 21A). As a positive control for autophagy induction, samples of cells in each cell cycle state were also incubated in Kreb's Ringer Bicarbonate solution (KRB), a protocol that induces autophagy through amino acid starvation and elimination of other nutrients except glucose. Levels of Atg5/Atg12, Atg7, and LC3-II were elevated in all of the amino acid starvation and contact-inhibition states as compared to the proliferating state (FIG. 21A). Atg3 was induced in all quiescent states compared with proliferating states, including amino acid starvation. In order to differentiate whether the high levels of autophagy proteins resulted from a blockade of autophagy degradation or active flux through the pathway, we monitored the levels of LC3-II in proliferating and 7 dCI fibroblasts in the presence of bafilomycin A1 (Baf-A1). Baf-A1 is a vacuolar-type H^+-ATPase inhibitor that prevents autophagosome fusion with the lysosome due to an increase in lysosomal pH. […] This finding is consistent with active autophagic flux in quiescent fibroblasts
In addition to its role in providing amino acids and energy under starvation conditions, autophagy is involved in maintenance of cellular homeostasis and resistance to tumorigenesis through degradation of old or damaged proteins and entire organelles. It was hypothesized that autophagy in contact-inhibited cells could function to degrade old and/or damaged proteins that would otherwise accumulate in the cytoplasm due to lack of cell division as a mechanism for dilution of these proteins. Oxidation of proteins causes the formation of carbonyl groups on amino acids, and carbonylation can disrupt protein function. To monitor the extent of protein oxidation in proliferating and contact-inhibited fibroblasts, the protein carbonyl groups were derivatized using 2,4-dinitrophenylhydrazine (DNP), and monitored using immunoblotting with an antibody that recognizes the covalently added DNP. The levels of oxidized proteins in proliferating and 7 dCI fibroblasts were monitored in cells that were either competent to perform autophagy (control), or were stably expressing an shRNA against the essential autophagy components Atg5 (sh-Atg5) or Atg7 (sh-Atg7), which are known to represent autophagy-defective phenotypes in other model systems. […] In contact-inhibited fibroblasts, in contrast, the levels of oxidized proteins increased 1.5-fold±0.1 in 7 dCI sh-Atg5 fibroblasts as compared to vector control counterparts (p=0.009) (FIG. 22B). […]
To test this hypothesis, the levels of an autophagy-specific form of the LC3 protein, LC3 II, were monitored compared to a housekeeping protein (Klionsky et al., 2008, “Guidelines for the use and interpretation of assays for monitoring autophagy in higher eukaryotes,” Autophagy 4, 151-175, which is incorporated herein by reference as if fully set forth). […]
We observed an increase in the ratio of LC3 II to GAPDH in response to MG132 treatment for cells in proliferating, contact-inhibited and serum-starved states (FIG. 25B). To test whether the high levels of LC3 II in quiescent cells in response to MG132 treatment result from a blockade of autophagy degradation or from active flux through the pathway, LC3 II levels were monitored in proliferating and quiescent fibroblasts treated with MG132 in the presence or absence of bafilomycin A1 (Baf). […]

[2] = system: proliferating and quiescent fibroblasts; experiment: annexin V / PI flow cytometry after proteasome inhibition; assay type: cell-based, human; settings: for cells with signs of apoptosis: highest dose (10 μM)
Description: (§2) To elucidate the responses of proliferating and quiescent fibroblasts to proteasome inhibition, the effects of known proteasome inhibitors on proliferating and quiescent fibroblasts were examined.
(§3) At the highest dose (10 μM), approximately 50% of proliferating cells were apoptotic (FIG. 24A-lower right (Q4), upper right (Q2), and upper left (Q1) quadrants represent early apoptosis, late apoptosis, and very late apoptosis or necrosis, respectively). In comparison, quiescent fibroblasts were largely unaffected by MG132 treatment, showing far lower levels of apoptosis.

[3] = as above; assay type: cell-based, human; settings: human
Description: as §2, §3

Structure (SMILES): CC(C)C[C@@H](C=O)NC(=O)[C@H](CC(C)C)NC(=O)[C@H](CC(C)C)NC(=O)OCc1ccccc1 [MG132] (Cbz-Leu-Leu-Leu-aldehyde)
- MnSOD protein levels (MnSOD; Western blot, proliferating and quiescent fibroblasts): further elevated MnSOD levels
- MnSOD transcript expression (MnSOD; microarray, proliferating and quiescent cells): induced MnSOD expression
- caspase 3/7 activity [1]: dose-dependent increases
- superoxide levels (superoxide; proliferating cells): significant induction of superoxide levels
- superoxide levels (superoxide; quiescent cells): maintained basal superoxide levels
- ratio of LC3 II to GAPDH (LC3-II): increase
- viability, quiescent vs proliferating fibroblasts ([2]; 48 hours of treatment): significantly higher number of quiescent fibroblasts maintained viability
- cells with signs of apoptosis ([2]; contact-inhibited fibroblasts, 24 hours): approximately 14%
- apoptotic cells (annexin V and PI) ([2]; proliferating cells, 10 μM, 24 hours): approximately 50%
- proliferating cell viability (fraction PI negative) ([2]; proliferating cells, 24 hours): statistically significant, dose-dependent decrease
- quiescent cell viability ([2]; quiescent cells, 24 hours, up to 10 μM MG132, 1 μM epoxomicin): maintained high viability
- cells with signs of apoptosis ([2]; serum-starved fibroblasts, 24 hours): ~10%
- cytotoxicity at 24 h, 10 μM [3]: ~50%
